In US9624170B2, “4-(piperrazin-1-yl)-pyrrolidin-2-one compounds as monoacylglycerol lipase (MAGL) inhibitors” (TAKEDA PHARMACEUTICAL COMPANY LIMITED, priority 2013, dated 2017):

What follows are compounds tested against T1, human MAGL (His-hMAGL) (Homo sapiens, UniProt Q99685) (assay: Measurement of MAGL inhibitory activity by absorbance). Details: 10 μM test compound; substrate p-nitrophenyl acetate, absorbance at 405 nm.
T1 construct: made in house; host or cells: Escherichia coli BL21(DE3)
T1 sequence (Q99685 1-303): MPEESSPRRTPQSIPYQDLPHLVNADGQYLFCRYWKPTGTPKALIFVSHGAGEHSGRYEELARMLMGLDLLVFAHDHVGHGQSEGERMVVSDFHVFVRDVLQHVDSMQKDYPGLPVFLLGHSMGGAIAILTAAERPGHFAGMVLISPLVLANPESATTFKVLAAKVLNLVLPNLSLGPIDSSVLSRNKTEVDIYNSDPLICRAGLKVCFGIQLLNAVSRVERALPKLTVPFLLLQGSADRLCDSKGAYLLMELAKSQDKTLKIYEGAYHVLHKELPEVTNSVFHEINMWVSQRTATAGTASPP
Assay type: biochemical
Source text: (1) Cloning of Human MGLL Encoding MAGL Protein and Construction of Expression Plasmid
Human MGLL cDNA was obtained by PCR using human ORF Clone (DNAForm; Clone ID: 100004585) as a template. For PCR, two kinds of primers: […]
The obtained PCR product was digested with Bam HI and Not I (Takara Bio Inc.), inserted into the Bam HI/Not I site of pET21HH(V) (pET21a (Novagen) inserted with His x6 and TEV Protease recognition sequence) by using Ligation High (Toyobo Co., Ltd.), and introduced into ECOS™ JM109 (Nippon Gene Co., Ltd.), whereby expression plasmid pET21HH(V)/His-hMGLLv2 for Escherichia coli was constructed. (2) Preparation of Recombinant Polyhistidine Tagged Human MAGL Protein
Recombinant His-hMAGL protein was prepared by transforming ECOS™ Competent E. coli BL21(DE3) (Nippon Gene Co., Ltd.) with the pET21HH(V)/His-hMGLLv2 plasmid prepared above. Escherichia coli obtained by transformation was inoculated to 10 mL of LB medium (1% peptone, 0.5% yeast extract, 0.5% sodium chloride, 0.01% ampicillin), and cultured at 30° C. for 16 hr. […] When the turbidity of the culture medium reached about 500 Klett unit, the culture temperature was lowered to 16° C., isopropyl-β-D-thiogalactopyranoside (IPTG) was added to a final concentration of 1 mM, and the mixture was further cultured for 19 hr. After the completion of culture, the culture medium was centrifuged (4° C., 6,000 rpm, 10 min) to give His-hMAGL expression Escherichia coli. Then, His-hMAGL expression Escherichia coli was suspended in 50 mM Tris-HCl (pH 8.0, 100 ml) containing 1% Triton X-100, 20 mM imidazole, 3 mM DTT, 5 U/mL Benzonase (Merck) and 150 mM NaCl, sufficiently cooled, and subjected to sonication at […]=60%, 15 sec/ON, 30 sec/OFF for 3 min using ¾″ solid type crushed horn of BRANSON Digital Sonifier 450 (Central Scientific Commerce, Inc.). Furthermore, the homogenate was centrifuged (4° C., 15,000 rpm, 15 min) and the supernatant was obtained. As the purification apparatus, AKTA explorer 10s (GE Healthcare Japan Corporation) was used at 4° C. To the obtained supernatant was added 5M NaCl to the final salt concentration of 0.3 M, and the mixture was flown through and adsorbed to 5 mL of Ni-NTA Superflow Cartridges (QIAGEN) equilibrated in advance with buffer A (50 mM Tris-HCl (pH 8.0) containing 0.05% TritonX-100, 1 mM DTT, 300 mM NaCl). The column was sufficiently washed with buffer A containing 20 mM imidazole and His-hMAGL was eluted with buffer A containing imidazole at a final concentration of 250 mM. The eluate was further subjected to gel filtration using HiLoad 26/600 Superdex 200 pg (GE Healthcare Japan Corporation) equilibrated with 50 mM Tris-HCl pH 8.0 containing 10% glycerol, 0.05% TritonX-100, 1 mM DTT, 150 mM NaCl. The eluted fraction was concentrated by Amicon Ultra-15 10K (Merck Millipore) to give purified His-hMAGL protein. The protein concentration was measured by BCA Protein Assay Kit (Thermo Fisher Scientific) using BSA as the standard.
(3) Measurement of MAGL Inhibitory Activity
His-hMAGL obtained above was diluted with enzyme reaction buffer (10 mM Tris-HCl, pH 7.5, 1 mM EDTA, 0.1 (w/v) % Triton X-100) to a concentration of 60 ng/mL. […] Thereafter, to each well was added 750 μM p-nitrophenyl acetate (Wako Pure Chemical Industries, Ltd.) by 5 μL, and the absorbance at 405 nm was measured every 2 minutes up to 10 minutes by EnVision (PerkinElmer). The amount of change was obtained by subtracting the absorbance measured immediately after the start of the reaction from the absorbance measured 10 min after the start of the reaction.
MAGL inhibitory rate (%) was calculated according to the following calculation formula. (1−(absorbance change amount of test compound addition group−absorbance change amount of enzyme addition-free group)[…](absorbance change amount of test compound addition-free group−absorbance change amount of enzyme addition-free group))×100
Compound O=C(c1nccs1)N1CCN(C2CC(=O)N(c3ccc(Oc4ccncc4)cc3)C2)CC1 (stereo not drawn) [Example 19, 1-(4-(pyridin-4-yloxy)phenyl)-4-(4-(1,3-thiazol-2-ylcarbonyl)piperazin-1-yl)pyrrolidin-2-one] has an inhibition at 10 µM of 91%. Compound O=C(c1nccs1)N1CCN(C2CC(=O)N(c3ccc4ccn(-c5ccc(F)cc5)c4c3)C2)CC1 (stereo not drawn) [Example 20, 1-(1-(4-fluorophenyl)-1H-indol-6-yl)-4-(4-(1,3-thiazol-2-ylcarbonyl)piperazin-1-yl)pyrrolidin-2-one] has an inhibition at 10 µM of 93%. For O=C(N1CCCC1)N1CCN(C2CC(=O)N(c3ccc(Oc4ccccc4)cc3)C2)CC1 (stereo not drawn) [Example 21, 1-(4-Phenoxyphenyl)-4-(4-(pyrrolidin-1-ylcarbonyl)piperazin-1-yl)pyrrolidin-2-one], the inhibition at 10 µM was 69%. COc1ccc(Oc2ccc(N3CC(N4CCN(C(=O)c5nccs5)CC4)CC3=O)cc2)cc1 (stereo not drawn) [Example 22, 1-(4-(4-methoxyphenoxy)phenyl)-4-(4-(1,3-thiazol-2-ylcarbonyl)piperazin-1-yl)pyrrolidin-2-one] was tested, and the inhibition at 10 µM was 97%. In the case of O=C(c1cocn1)N1CCN(C2CC(=O)N(c3ccc(Oc4ccccc4)cc3)C2)CC1 (stereo not drawn) [Example 36, 4-(4-(1,3-oxazol-4-ylcarbonyl)piperazin-1-yl)-1-(4-phenoxyphenyl)pyrrolidin-2-one], the inhibition at 10 µM is reported as 95%. Work on O=C(c1nccs1)N1CCN(C2CC(=O)N(c3ccc(Cc4ccccc4)cc3)C2)CC1 (stereo not drawn) [Example 38, 1-(4-benzylphenyl)-4-(4-(1,3-thiazol-2-ylcarbonyl)piperazin-1-yl)pyrrolidin-2-one] yielded an inhibition at 10 µM of 99%. For COc1cccc(Oc2ccc(N3CC(N4CCN(C(=O)c5nccs5)CC4)CC3=O)cc2)c1 (stereo not drawn) [Example 44, 1-(4-(3-methoxyphenoxy)phenyl)-4-(4-(1,3-thiazol-2-ylcarbonyl)piperazin-1-yl)pyrrolidin-2-one], the inhibition at 10 µM was 97%. COc1ccccc1Oc1ccc(N2CC(N3CCN(C(=O)c4nccs4)CC3)CC2=O)cc1 (stereo not drawn) [Example 45, 1-(4-(2-methoxyphenoxy)phenyl)-4-(4-(1,3-thiazol-2-ylcarbonyl)piperazin-1-yl)pyrrolidin-2-one] was tested, and the inhibition at 10 µM was 97%. O=C(c1nccs1)N1CCN(C2CC(=O)N(c3ccc4[nH]ncc4c3)C2)CC1 (stereo not drawn) [Example 47, 1-(1H-indazol-5-yl)-4-(4-(1,3-thiazol-2-ylcarbonyl)piperazin-1-yl)pyrrolidin-2-one] showed an inhibition at 10 µM of 96%. For O=C(c1nccs1)N1CCN(C2CC(=O)N(c3cnc4c(ccn4-c4ccc(F)cc4)c3)C2)CC1 (stereo not drawn) [Example 51, 1-(1-(4-fluorophenyl)-1H-pyrrolo[2,3-b]pyridin-5-yl)-4-(4-(1,3-thiazol-2-ylcarbonyl)piperazin-1-yl)pyrrolidin-2-one], the inhibition at 10 µM was 97%. O=C(c1nccs1)N1CCN(C2CC(=O)N(c3ccc4c(ccn4-c4ncc(C(F)(F)F)cn4)c3)C2)CC1 (stereo not drawn) [Example 52, 4-(4-(1,3-Thiazol-2-ylcarbonyl)piperazin-1-yl)-1-(1-(5-(trifluoromethyl)pyrimidin-2-yl)-1H-indol-5-yl)pyrrolidin-2-one] showed an inhibition at 10 µM of 97%. O=C(c1nccs1)N1CCN(C2CC(=O)N(c3ccc4c(ccn4-c4ccc(C(F)(F)F)cn4)c3)C2)CC1 (stereo not drawn) [Example 53, 4-(4-(1,3-Thiazol-2-ylcarbonyl)piperazin-1-yl)-1-(1-(5-(trifluoromethyl)pyridin-2-yl)-1H-indol-5-yl)pyrrolidin-2-one] gave an inhibition at 10 µM of 98%. In the case of O=C(c1nccs1)N1CCN(C2CC(=O)N(c3ccc(C4CC4)cc3)C2)CC1 (stereo not drawn) [Example 57, 1-(4-Cyclopropylphenyl)-4-(4-(1,3-thiazol-2-ylcarbonyl)piperazin-1-yl)pyrrolidin-2-one], the inhibition at 10 µM is reported as 90%. O=C(c1nccs1)N1CCN(C2CC(=O)N(c3ccccc3OCc3ccccc3)C2)CC1 (stereo not drawn) [Example 58, 1-(2-(benzyloxy)phenyl)-4-(4-(1,3-thiazol-2-ylcarbonyl)piperazin-1-yl)pyrrolidin-2-one] gave an inhibition at 10 µM of 97%. O=C(c1nccs1)N1CCN(C2CC(=O)N(c3ccc(OCc4ccccc4)cc3)C2)CC1 (stereo not drawn) [Example 60, 1-(4-(Benzyloxy)phenyl)-4-(4-(1,3-thiazol-2-ylcarbonyl)piperazin-1-yl)pyrrolidin-2-one] gave an inhibition at 10 µM of 98%. Work on O=C(c1nccs1)N1CCN(C2CC(=O)N(c3ccc(-c4ccc(Cl)cc4)cc3)C2)CC1 (stereo not drawn) [Example 63, 1-(4′-chlorobiphenyl-4-yl)-4-(4-(1,3-thiazol-2-ylcarbonyl)piperazin-1-yl)pyrrolidin-2-one] yielded an inhibition at 10 µM of 95%. O=C(c1nccs1)N1CCN(C2CC(=O)N(c3cccc(-c4ccccn4)c3)C2)CC1 (stereo not drawn) [Example 64, 1-(3-(pyridin-2-yl)phenyl)-4-(4-(1,3-thiazol-2-ylcarbonyl)piperazin-1-yl)pyrrolidin-2-one] showed an inhibition at 10 µM of 90%. In the case of O=C(c1nccs1)N1CCN(C2CC(=O)N(c3cccc(-c4cccnc4)c3)C2)CC1 (stereo not drawn) [Example 65, 1-(3-(pyridin-3-yl)phenyl)-4-(4-(1,3-thiazol-2-ylcarbonyl)piperazin-1-yl)pyrrolidin-2-one], the inhibition at 10 µM is reported as 93%. O=C(c1nccs1)N1CCN(C2CC(=O)N(c3cccc(-c4ccncc4)c3)C2)CC1 (stereo not drawn) [Example 66, 1-(3-(pyridin-4-yl)phenyl)-4-(4-(1,3-thiazol-2-ylcarbonyl)piperazin-1-yl)pyrrolidin-2-one] showed an inhibition at 10 µM of 91%. For O=C(c1nccs1)N1CCN(C2CC(=O)N(c3cccc4ccccc34)C2)CC1 (stereo not drawn) [Example 70, 1-(1-naphthyl)-4-(4-(1,3-thiazol-2-ylcarbonyl)piperazin-1-yl)pyrrolidin-2-one], the inhibition at 10 µM was 91%. For O=C(c1nccs1)N1CCN(C2CC(=O)N(c3ccc4cc(Br)ccc4c3)C2)CC1 (stereo not drawn) [Example 71, 1-(6-brorno-2-naphthyl)-4-(4-(1,3-thiazol-2-ylcarbonyl)piperazin-1-yl)pyrrolidin-2-one], the inhibition at 10 µM was 90%. For O=C(c1nccs1)N1CCN(C2CC(=O)N(c3ccc4c(c3)oc3ccccc34)C2)CC1 (stereo not drawn) [Example 72, 1-(Dibenzo[b,d]furan-3-yl)-4-(4-(1,3-thiazol-2-ylcarbonyl)piperazin-1-yl)pyrrolidin-2-one], the inhibition at 10 µM was 92%. Work on O=C(c1nccs1)N1CCN(C2CC(=O)N(c3cccc(I)c3)C2)CC1 (stereo not drawn) [Example 75, 1-(3-iodophenyl)-4-(4-(1,3-thiazol-2-ylcarbonyl)piperazin-1-yl)pyrrolidin-2-one] yielded an inhibition at 10 µM of 95%.

Same assay, conditions: 10 μM test compound; substrate p-nitrophenyl acetate, absorbance at 405 nm; 10 µM
With O=C(c1nccs1)N1CCN(C2CC(=O)N(c3ccc4c(ccn4-c4ccc(F)cc4)c3)C2)CC1 (stereo not drawn) [Example 23, 1-(1-(4-Fluorophenyl)-1H-indol-5-yl)-4-(4-(1,3-thiazol-2-ylcarbonyl)piperazin-1-yl)pyrrolidin-2-one (optical isomer)] the “Inhibition at 10 μM (%)” value was 99%.
